Data reported in US20230066268A1, “INDAZOLE DERIVATIVES AND METHODS OF USE THEREOF FOR THE TREATMENT OF HERPES VIRUSES” (Merck Sharp & Dohme LLC, priority 2019, published 2023).
Read-outs that look alike come from different tables or passages of the source.

What was measured:
[1] = biological target: T1, varicella zoster virus DNA polymerase (Varicella-zoster virus, UniProt P09252); assay: VZV polymerase assay (AlphaLISA); type: biochemical; conditions: polymerase assay of Example 27, VZV polymerase 0.4 nM
T1 construct: made in house; host or cells: SF21 insect cells (baculovirus vector)
Description: (§1) CMV and VZV Polymerase Assays
(§2) Human cytomegalovirus and varicella zoster virus DNA polymerases were expressed via baculovirus vector in SF21 cells and purified. Heterodimeric nucleic acid substrate used in the herpesvirus polymerase reactions were generated by annealing a 59-mer template to a 17-mer digoxigenin-labeled primer. Polymerase (HCMV final concentration of 0.2 nM; VZV final concentration of 0.4 nM) was combined with an inhibitor compound or DMSO in assay buffer (10 mM HEPES, pH 7.5, 25 mM KCl, 25 mM NaCl, 5 mM MgCl2, 5% glycerol, 0.67 mg/mL bovine serum albumin, and 1 mM tris(2-carboxyethyl)phosphine)), and this mixture was pre-incubated for 30 minutes at room temperature in 384-well microtiter plates. The polymerization reaction was initiated by the addition of template/primer substrate (final concentration: 1.6 nM) and dNTPs (final concentration: 24 nM dCTP, 24 nMdGTP, 16 nM dATP, 16 nM dTTP, and 0.8 nM biotin-dUTP). After a 60 minute incubation period at 37° C., the reactions were terminated using quench buffer (25 mM HEPES pH 7.5, 100 mM NaCl, 0.25% Tween-20, 12 mM EDTA, and 1 mg/mL bovine serum albumin). Incorporation of biotinylated UTP was detected with 2.5-5 μg/mL anti-DIG AlphaLISA acceptor beads and 5-10 μg/mL streptavidin AlphaLISA donor beads (PerkinElmer). Compound effects were normalized to the window defined by the controls (DMSO only and pre-quenched wells) and were fit using a 4-parameter algorithm to report an IC50.

[2] = test system: HCMV Strain AD169 in MRC-5 cells; assay: CMV cell assay; type: cell-based
Description: (§3) MRCS and Vero cells were obtained from ATCC and were maintained at 37° C./5% CO2/90% relative humidity in Minimal Essential Medium with 10% fetal bovine serum, […], 100 units/mL penicillin and 100 ug/mL streptomycin. Assay plates were prepared by dispensing compounds dissolved in DMSO into wells of 384 well collagen-coated plates using an ECHO acoustic dispenser. Each test compound was tested in a 10-point, serial 3-fold dilution. Controls included uninfected cells and infected cells treated only with DMSO. Assays were initiated by mixing selected cells, in suspension, with virus, and dispensing 50 μl/well infected cells to pre-plated compounds. Plates were incubated at 37° C./5% CO2/90% relative humidity for ˜72 hours to permit genomic replication, and infected cells were lysed by the addition of an equal volume of lysis buffer (10 mM Tris-HCl, pH8, 50 mM KCl, 2 mM MgCl2, 0.45% NP-40, 0.45% Tween-20, and 100 μg/mL proteinase K). An aliquot of the lysate was then transferred to a 384-well PCR plate and incubated at 56° C. for 1 hour, and then at 95° C. for 10 minutes. Levels of a viral gene were measured in 10 ul qPCR assays using TaqMan® Gene Expression Master Mix (Applied Biosystems) and an 7900HT Fast Real-Time PCR System with 384-Well Block Module. 7-point, serial 10-fold dilutions of a plasmid standard were run on each plate to generate a standard curve, and genome copies numbers were calculated by plotting experimental Ct onto linear regression of the standard curve. Compound effects on viral genome copy number were normalized to the window defined by the controls. Calculated % effects were fit using a 4-parameter algorithm, and EC50 was reported.
(§4) HCMV: Strain AD169 was assayed in MRC-5 cells and was used at 0.05-0.1 pfu/cell. The assays were performed in either growth media or in the same media with 50% fetal bovine serum. Primer-probe set was Thermo Fisher Assay ID=AIFATFK. HSV-1: Strain F was assayed in Vero or MRCS cells and was used at 0.0005-0.004 pfu/cell in growth medium. Primer-probe set was Thermo Fisher Assay ID=AIBJZIB. HSV-2: Strain G was assayed in Vero or MRCS cells and was used at 0.004-0.4 pfu/cell in growth medium. Primer-probe set was Thermo Fisher Assay ID=AICSXOJ.

[3] = biological target: T2, Human cytomegalovirus DNA polymerase (Human cytomegalovirus, UniProt P08546); assay: CMV polymerase assay (AlphaLISA); type: biochemical; conditions: polymerase assay of Example 27, HCMV polymerase 0.2 nM
T2 construct: made in house; host or cells: SF21 insect cells (baculovirus vector)
Description: as §1, §2

[4] = test system: HSV-1 Strain F in Vero or MRCS cells; assay: Viral qPCR assay, HSV-1; type: cell-based; conditions: read-out: HSV1 Cell (EC50), values marked *
Description: as §3, §4

[5] = test system: HSV-2 Strain G in Vero or MRCS cells; assay: Viral qPCR assay, HSV-2; type: cell-based; conditions: read-out: HSV2 Cell (EC50), values marked *
Description: as §3, §4

[6] = Human betaherpesvirus 5, AD169, MRC5, footnote b: assay described in Example 25, read-out: CMV Cell^b (EC50)
[7] = Human alphaherpesvirus 1, starred values: viral qPCR assay of Example 26, ~72 hours, Vero or MRCS cells
[8] = Human alphaherpesvirus 2, starred values: viral qPCR assay of Example 26, ~72 hours, Vero or MRCS cells

T1 sequence (P09252 whole entry): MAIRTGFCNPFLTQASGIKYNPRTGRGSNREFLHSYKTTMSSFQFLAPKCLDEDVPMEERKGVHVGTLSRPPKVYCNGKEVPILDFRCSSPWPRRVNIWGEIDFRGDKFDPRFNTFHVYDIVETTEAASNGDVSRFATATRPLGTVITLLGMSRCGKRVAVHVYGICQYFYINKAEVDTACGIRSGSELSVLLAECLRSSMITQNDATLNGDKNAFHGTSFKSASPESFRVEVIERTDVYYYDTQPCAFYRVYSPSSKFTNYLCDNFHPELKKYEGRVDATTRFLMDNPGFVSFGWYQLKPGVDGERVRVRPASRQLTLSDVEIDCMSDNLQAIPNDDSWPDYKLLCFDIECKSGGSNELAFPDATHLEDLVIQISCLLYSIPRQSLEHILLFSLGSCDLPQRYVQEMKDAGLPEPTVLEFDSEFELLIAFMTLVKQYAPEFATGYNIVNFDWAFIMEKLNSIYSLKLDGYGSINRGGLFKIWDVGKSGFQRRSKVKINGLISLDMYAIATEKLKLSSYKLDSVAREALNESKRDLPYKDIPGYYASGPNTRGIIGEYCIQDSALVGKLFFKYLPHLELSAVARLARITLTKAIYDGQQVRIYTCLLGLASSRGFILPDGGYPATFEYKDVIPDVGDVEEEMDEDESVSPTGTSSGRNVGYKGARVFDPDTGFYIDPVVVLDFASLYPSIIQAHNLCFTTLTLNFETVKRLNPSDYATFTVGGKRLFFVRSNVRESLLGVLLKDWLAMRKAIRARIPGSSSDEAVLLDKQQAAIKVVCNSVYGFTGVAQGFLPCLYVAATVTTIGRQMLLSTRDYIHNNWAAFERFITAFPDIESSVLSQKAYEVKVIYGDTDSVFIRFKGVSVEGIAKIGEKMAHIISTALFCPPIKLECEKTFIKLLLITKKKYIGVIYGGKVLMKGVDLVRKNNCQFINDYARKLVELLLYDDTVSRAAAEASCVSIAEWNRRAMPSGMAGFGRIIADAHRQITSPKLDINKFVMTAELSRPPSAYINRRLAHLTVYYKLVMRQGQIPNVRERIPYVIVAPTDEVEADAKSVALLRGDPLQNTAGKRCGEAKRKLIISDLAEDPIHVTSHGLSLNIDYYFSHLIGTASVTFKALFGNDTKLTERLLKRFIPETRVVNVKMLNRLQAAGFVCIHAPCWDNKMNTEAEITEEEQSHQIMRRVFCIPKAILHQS
T2 sequence (P08546 whole entry): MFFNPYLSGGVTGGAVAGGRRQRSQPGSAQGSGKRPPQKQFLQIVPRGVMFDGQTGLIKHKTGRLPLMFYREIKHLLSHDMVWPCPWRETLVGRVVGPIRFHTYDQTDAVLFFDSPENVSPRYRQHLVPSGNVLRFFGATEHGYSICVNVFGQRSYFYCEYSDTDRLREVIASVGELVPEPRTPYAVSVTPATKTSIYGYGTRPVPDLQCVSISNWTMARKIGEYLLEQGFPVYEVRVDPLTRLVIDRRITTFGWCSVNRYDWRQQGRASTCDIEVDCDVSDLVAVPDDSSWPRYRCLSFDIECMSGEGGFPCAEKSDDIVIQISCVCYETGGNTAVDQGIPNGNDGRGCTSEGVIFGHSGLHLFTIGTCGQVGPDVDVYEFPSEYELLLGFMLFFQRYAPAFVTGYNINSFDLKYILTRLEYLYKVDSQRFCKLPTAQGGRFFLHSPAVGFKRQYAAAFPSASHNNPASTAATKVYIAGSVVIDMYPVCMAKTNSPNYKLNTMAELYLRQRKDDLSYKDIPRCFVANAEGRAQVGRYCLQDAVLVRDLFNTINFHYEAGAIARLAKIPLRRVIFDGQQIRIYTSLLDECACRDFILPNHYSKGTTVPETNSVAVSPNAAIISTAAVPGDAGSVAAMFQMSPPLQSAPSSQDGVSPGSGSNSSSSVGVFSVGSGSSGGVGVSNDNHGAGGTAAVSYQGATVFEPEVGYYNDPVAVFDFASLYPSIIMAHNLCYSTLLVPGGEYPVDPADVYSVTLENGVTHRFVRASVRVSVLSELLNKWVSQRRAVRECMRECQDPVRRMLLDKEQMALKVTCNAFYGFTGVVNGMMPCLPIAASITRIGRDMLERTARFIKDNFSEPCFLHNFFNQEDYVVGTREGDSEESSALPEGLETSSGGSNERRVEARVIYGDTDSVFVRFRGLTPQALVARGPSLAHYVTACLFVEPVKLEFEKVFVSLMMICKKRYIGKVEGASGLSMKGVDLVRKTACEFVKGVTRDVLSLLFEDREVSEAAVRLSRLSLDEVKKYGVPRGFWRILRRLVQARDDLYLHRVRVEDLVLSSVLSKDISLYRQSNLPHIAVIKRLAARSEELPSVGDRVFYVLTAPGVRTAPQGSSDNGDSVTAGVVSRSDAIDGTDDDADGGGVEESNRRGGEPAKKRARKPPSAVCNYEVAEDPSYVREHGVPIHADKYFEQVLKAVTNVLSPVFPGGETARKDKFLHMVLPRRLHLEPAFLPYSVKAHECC

| IC50 ([1]; read-out: VZV^a (IC50)) [nM] | IC50 ([3]; read-out: CMV^a (IC50)) [nM] | Structure (SMILES) | IC50 ([1]; VZV^a (IC50)) [nM] | EC50 ([2]; Human betaherpesvirus 5, AD169, MRC5, read-out: CMV Cell^b (EC50), footnote b: assay described in Example 25) [nM] | IC50 ([3]; CMV^a (IC50)) [nM] | EC50 ([4]; Human alphaherpesvirus 1, Vero, 72 h) [nM] | EC50 ([5]; Human alphaherpesvirus 2, Vero, 72 h) [nM] | EC50 [2, 6] [nM] | EC50 [4, 7] [nM] | EC50 [5, 8] [nM] |
| --- | --- | --- | --- | --- | --- | --- | --- | --- | --- | --- |
|  |  | NCCn1nc(C(=O)NCc2ccc(Cl)cc2)c2ccc(NCc3cnns3)c(Cl)c21 [Compound 3] | 2.9 | 71 | 9.6 | 85 | 170 |  |  |  |
| 14 | 150 | Cn1nc(C(=O)NCc2ccc(Cl)cc2)c2c3c(ccc21)C(N1CCOCC1)CC3 (centres unmarked) [Compound 17] |  |  |  |  |  | 1000 | 310 | 350 |
| 35 | 78 | Cn1nc(C(=O)NCc2ccc(Cl)cc2)c2cc(C[C@H]3COC(=O)N3)ccc21 [Compound 33] |  |  |  |  |  | 160 | 200 | 110 |
| 24 | 67 | Cn1nc(C(=O)NCc2ccc(Cl)cc2)c2cc(C[C@H]3CCC(=O)N3)ccc21 [Compound 34] |  |  |  |  |  | 330 | 220 | 240 |
